# In the supplement of paper PMC10307832:
# Assays:
# Assay in all cases: relative viability (nuclei count vs DMSO), 5 days (fraction); higher = more cells survive
# BGJ398 + OSI-027 = compound: CCN1CCN(c2ccc(Nc3cc(N(C)C(=O)Nc4c(Cl)c(OC)cc(OC)c4Cl)ncn3)cc2)CC1 [BGJ398] + COc1cccc2cc(-c3nc([C@H]4CC[C@H](C(=O)O)CC4)n4ncnc(N)c34)[nH]c12 [OSI-027] (partner 0.5 µM)
# Outline: (§1)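 Five library-drug doses in √10 steps were combined with a fixed anchor-drug dose, or a single drug was given alone, by pin tool to lung cancer cell lines in 1536-well plates the day after seeding. Nuclei were stained and counted after 5 days. Relative viability is the nuclei count in treated wells over that in vehicle wells, taken as the median of duplicate plates.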
# BGJ398 + Linsitinib = compound: CCN1CCN(c2ccc(Nc3cc(N(C)C(=O)Nc4c(Cl)c(OC)cc(OC)c4Cl)ncn3)cc2)CC1 [BGJ398] + C[C@]1(O)C[C@@H](c2nc(-c3ccc4ccc(-c5ccccc5)nc4c3)c3c(N)nccn32)C1 [Linsitinib] (partner 1 µM)
# Outline: as §1
# BGJ398 + Alpelisib = compound: CCN1CCN(c2ccc(Nc3cc(N(C)C(=O)Nc4c(Cl)c(OC)cc(OC)c4Cl)ncn3)cc2)CC1 [BGJ398] + Cc1nc(NC(=O)N2CCC[C@H]2C(N)=O)sc1-c1ccnc(C(C)(C)C(F)(F)F)c1 [Alpelisib] (partner 2 µM)
# Outline: as §1
# BGJ398 + Vorinostat = compound: CCN1CCN(c2ccc(Nc3cc(N(C)C(=O)Nc4c(Cl)c(OC)cc(OC)c4Cl)ncn3)cc2)CC1 [BGJ398] + O=C(CCCCCCC(=O)Nc1ccccc1)NO [Vorinostat] (partner 1 µM)
# Outline: as §1
Cell Line,relative viability (BGJ398 + OSI-027; first compound 0.01 µM),relative viability (BGJ398 + OSI-027; first compound 0.03162 µM),relative viability (BGJ398 + OSI-027; first compound 0.1 µM),relative viability (BGJ398 + OSI-027; first compound 0.3162 µM),relative viability (BGJ398 + OSI-027; first compound 1 µM),relative viability (BGJ398 + Linsitinib; first compound 0.01 µM),relative viability (BGJ398 + Linsitinib; first compound 0.03162 µM),relative viability (BGJ398 + Linsitinib; first compound 0.1 µM),relative viability (BGJ398 + Linsitinib; first compound 0.3162 µM),relative viability (BGJ398 + Linsitinib; first compound 1 µM),relative viability (BGJ398 + Alpelisib; first compound 0.01 µM),relative viability (BGJ398 + Alpelisib; first compound 0.03162 µM),relative viability (BGJ398 + Alpelisib; first compound 0.1 µM),relative viability (BGJ398 + Alpelisib; first compound 0.3162 µM),relative viability (BGJ398 + Alpelisib; first compound 1 µM),relative viability (BGJ398 + Vorinostat; first compound 0.01 µM),relative viability (BGJ398 + Vorinostat; first compound 0.03162 µM),relative viability (BGJ398 + Vorinostat; first compound 0.1 µM),relative viability (BGJ398 + Vorinostat; first compound 0.3162 µM),relative viability (BGJ398 + Vorinostat; first compound 1 µM)
HARA,0.422,0.32,0.506,0.358,0.439,0.845,0.856,0.903,0.978,0.902,0.784,0.635,0.752,0.817,0.787,0.63,0.51,0.669,0.598,0.593
NCI-H2087,0.359,0.639,0.587,0.63,0.546,0.973,0.886,0.988,0.922,0.881,0.99,1.17,1.05,1.19,1.18,0.552,0.442,0.816,0.679,0.657
NCI-H1437,0.807,0.867,0.873,0.865,0.926,0.999,0.995,1.04,1.05,1.06,0.96,0.989,0.955,0.991,0.972,0.954,0.887,0.794,0.784,0.821
NCI-H650,0.477,0.519,0.535,0.505,0.503,0.822,1.01,0.959,0.875,0.909,1.05,1.2,1.33,1.19,1.1,0.414,0.427,0.543,0.464,0.411
COR-L23,0.787,0.88,0.848,0.667,0.8,0.929,0.873,1.04,0.975,0.923,0.755,0.872,0.686,0.843,0.824,0.443,0.52,0.445,0.485,0.484
COR-L 105,0.644,0.441,0.704,0.519,0.654,0.824,1.09,0.851,0.777,0.8,0.919,0.956,0.979,1.05,1.06,0.656,0.727,0.879,0.828,0.931
LK-2,0.18,0.181,0.155,0.121,0.176,0.519,0.438,0.242,0.214,0.171,0.813,0.936,0.557,0.381,0.311,0.296,0.334,0.247,0.225,0.207
201T,0.781,0.825,0.793,0.636,0.564,1.17,1.08,1.07,1.06,1.01,1.08,1.01,0.893,0.964,0.994,1.2,0.947,0.949,0.929,0.885
HCC-44,0.6,0.591,0.598,0.51,0.473,0.63,0.616,0.7,0.76,0.629,0.8,0.761,0.763,0.856,0.815,1.12,1.14,1.14,1.1,1.09
NCI-H596,0.761,0.693,0.655,0.648,0.621,0.864,1,1.12,0.957,0.942,0.608,0.442,0.506,0.441,0.561,0.612,0.619,0.674,0.508,0.528
H3255,0.493,,0.676,0.37,0.602,0.887,0.35,0.919,0.708,1.05,0.676,,0.747,0.37,0.792,0.793,,0.77,,0.795
NCI-H647,0.554,0.765,0.724,0.638,0.536,1.06,1.29,1.26,1.17,1.08,1.05,1.19,1.06,1.26,1.15,0.471,0.549,0.482,0.51,0.626
NCI-H2023,0.364,0.462,0.46,0.41,0.395,0.602,0.831,0.657,0.688,0.646,0.576,0.644,0.534,0.586,0.579,0.673,0.683,0.715,0.664,0.54
NCI-H23,0.588,0.726,0.692,0.518,0.569,0.582,0.597,0.564,0.568,0.48,0.746,0.652,0.666,0.625,0.574,0.611,0.668,0.722,0.53,0.557
NCI-H1944,0.364,0.425,0.436,0.388,0.329,1.17,1.22,1.28,1.2,1.28,0.689,0.816,0.899,0.805,0.845,0.525,0.529,0.55,0.49,0.471
NCI-H1793,0.326,0.309,0.241,0.229,0.243,0.804,,0.833,0.71,0.756,0.676,,0.955,0.696,0.549,0.767,0.574,0.728,0.515,0.421

Cell Line,relative viability (BGJ398 + OSI-027; first compound 0.01 µM),relative viability (BGJ398 + OSI-027; first compound 0.03162 µM),relative viability (BGJ398 + OSI-027; first compound 0.1 µM),relative viability (BGJ398 + OSI-027; first compound 0.3162 µM),relative viability (BGJ398 + OSI-027; first compound 1 µM),relative viability (BGJ398 + Linsitinib; first compound 0.01 µM),relative viability (BGJ398 + Linsitinib; first compound 0.03162 µM),relative viability (BGJ398 + Linsitinib; first compound 0.1 µM),relative viability (BGJ398 + Linsitinib; first compound 0.3162 µM),relative viability (BGJ398 + Linsitinib; first compound 1 µM),relative viability (BGJ398 + Alpelisib; first compound 0.01 µM),relative viability (BGJ398 + Alpelisib; first compound 0.03162 µM),relative viability (BGJ398 + Alpelisib; first compound 0.1 µM),relative viability (BGJ398 + Alpelisib; first compound 0.3162 µM),relative viability (BGJ398 + Alpelisib; first compound 1 µM),relative viability (BGJ398 + Vorinostat; first compound 0.01 µM),relative viability (BGJ398 + Vorinostat; first compound 0.03162 µM),relative viability (BGJ398 + Vorinostat; first compound 0.1 µM),relative viability (BGJ398 + Vorinostat; first compound 0.3162 µM),relative viability (BGJ398 + Vorinostat; first compound 1 µM)
NCI-H520,0.198,0.243,0.183,0.147,0.176,0.934,0.922,0.735,0.435,0.367,0.888,0.886,0.506,0.414,0.243,0.637,0.563,0.503,0.269,0.332
NCI-H460,0.63,0.733,0.81,0.642,0.719,0.714,0.838,0.916,0.895,0.92,0.47,0.594,0.574,0.566,0.422,0.737,0.706,1.18,0.809,0.67
EKVX,0.628,0.679,0.72,0.703,0.69,0.776,0.859,1.17,1.05,1.05,0.798,0.665,0.95,0.842,0.977,0.701,,0.921,0.691,0.728
NCI-H358,0.611,0.793,0.81,0.798,1,0.631,0.714,0.724,0.707,0.848,0.881,0.893,0.857,0.97,0.937,0.614,0.769,0.704,0.635,0.824
EPLC-272H,0.283,0.279,0.248,0.241,0.293,1.16,1.16,1.2,1,1.22,0.895,0.812,0.846,0.752,0.952,0.531,0.395,0.261,0.5,0.578
NCI-H1395,0.621,0.649,0.551,0.448,0.497,1.15,1.24,0.977,0.939,0.797,0.982,1.02,0.994,0.719,0.604,0.754,0.683,0.534,0.469,0.495
NCI-H2126,0.864,0.705,0.664,0.721,0.687,0.688,0.692,0.713,0.739,0.746,0.78,0.746,0.735,0.766,0.853,0.768,0.787,0.861,0.775,0.765
LXF-289,0.708,0.795,0.806,0.768,0.799,0.944,0.886,0.883,0.84,0.899,0.983,1.03,1.02,0.957,0.947,0.746,0.666,0.769,0.608,0.73
NCI-H2009,0.553,0.73,0.653,0.633,0.685,1.18,1.24,1.14,1.16,1.17,1.13,1.19,1.11,1.17,1.09,0.714,0.729,0.74,0.687,0.692
NCI-H2405,0.644,0.724,0.664,0.666,0.655,0.863,0.892,0.982,1.07,1.01,0.723,0.932,0.831,0.79,0.875,1.13,1.04,0.919,0.938,1.01
NCI-H1755,0.598,0.852,0.749,0.779,0.698,0.93,1.01,0.983,0.955,1.01,0.861,0.965,1.05,0.908,0.889,0.714,0.746,0.827,0.733,0.72
HCC-78,0.369,0.348,0.346,0.349,0.366,0.378,0.463,0.614,0.541,0.546,0.274,0.311,0.378,0.366,0.338,0.427,0.417,0.518,0.481,0.577
LOU-NH91,0.667,,0.734,0.478,0.728,0.903,0.539,0.933,0.557,0.911,0.727,0.531,0.717,0.491,0.697,0.896,0.896,0.957,0.748,0.883
NCI-H3122,0.91,1,0.941,1,1.05,1,1.06,0.997,1.05,1.02,0.835,0.844,0.763,0.717,0.832,0.99,0.991,1.01,0.996,1.2
HCC-827,0.633,,0.754,0.547,0.847,0.95,,0.872,0.942,0.989,0.821,,1.1,0.962,1.05,0.763,,0.87,0.358,0.81
SK-LU-1,0.333,0.4,0.362,0.272,0.35,1.1,1.01,1.2,1.15,1.21,0.939,0.885,1.02,0.971,0.796,0.764,0.773,0.839,0.767,0.774
